Calls of active or inactive are those of the source.
What was measured:
[1] = inhibitors of Trypanosoma cruzi host-cell infection, confirmation, beta-gal luminescence, NIH3T3 host cells (AID 2630); assay type: functional, cell-based; conditions: Mus musculus
[2] = target: T1, Mannose-6-phosphate isomerase (Homo sapiens, UniProt P34949); assay: PMI enzyme inhibitors, confirmation, biochemical, fluorescence intensity (AID 1535)
T1 sequence (P34949 whole entry): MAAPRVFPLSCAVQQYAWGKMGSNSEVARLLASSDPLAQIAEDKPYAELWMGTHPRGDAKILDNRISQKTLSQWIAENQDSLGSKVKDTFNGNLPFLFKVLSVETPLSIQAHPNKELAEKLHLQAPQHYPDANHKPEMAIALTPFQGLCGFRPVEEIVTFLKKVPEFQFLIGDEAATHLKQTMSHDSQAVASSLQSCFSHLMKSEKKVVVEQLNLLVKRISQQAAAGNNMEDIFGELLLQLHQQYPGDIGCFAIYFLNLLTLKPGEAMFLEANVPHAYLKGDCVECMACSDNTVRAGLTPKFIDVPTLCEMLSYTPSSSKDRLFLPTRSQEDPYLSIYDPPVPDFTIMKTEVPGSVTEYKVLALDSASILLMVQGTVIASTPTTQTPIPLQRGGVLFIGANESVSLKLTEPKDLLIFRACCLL

[3] = target: Phosphomannomutase 2 (Homo sapiens, UniProt O15305); assay: Counter screen SAR assay for PMM2 inhibitors via a fluorescence intensity assay. [Related pubchem assays (depositor defined):AID1545, AID1574]
[4] = target: Cytochrome P450 2C19 (Homo sapiens, UniProt P33261); assay: Cytochrome panel assay with activity outcomes. Panel member name: p450-cyp2c19 Compounds with AC50 equal or less than 10 uM are considered active; assay type: functional; conditions: read-out: AC50
[5] = target: T2, Cytochrome P450 1A2 (Homo sapiens, UniProt P05177);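 further: PubChem cytochrome P450 panel assay, CYP1A2 panel member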
T2 sequence (P05177 whole entry): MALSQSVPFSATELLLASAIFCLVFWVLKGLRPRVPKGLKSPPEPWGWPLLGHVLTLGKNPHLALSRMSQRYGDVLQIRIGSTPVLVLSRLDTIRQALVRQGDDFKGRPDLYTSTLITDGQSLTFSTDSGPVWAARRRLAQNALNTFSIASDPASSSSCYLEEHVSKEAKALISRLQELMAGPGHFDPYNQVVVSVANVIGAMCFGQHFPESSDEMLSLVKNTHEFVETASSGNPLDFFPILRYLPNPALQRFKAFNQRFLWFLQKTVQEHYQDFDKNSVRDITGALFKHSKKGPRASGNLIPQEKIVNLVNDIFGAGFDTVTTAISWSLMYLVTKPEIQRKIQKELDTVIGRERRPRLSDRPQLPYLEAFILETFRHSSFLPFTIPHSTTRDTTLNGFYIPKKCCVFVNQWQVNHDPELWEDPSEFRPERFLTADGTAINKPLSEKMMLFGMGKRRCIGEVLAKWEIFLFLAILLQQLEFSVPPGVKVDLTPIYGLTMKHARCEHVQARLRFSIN

[6] = target: Cytochrome P450 2C9 (Homo sapiens, UniProt P11712)
[7] = target: Cytochrome P450 3A4 (Homo sapiens, UniProt P08684);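 further: CYP3A4 tested as one member of a cytochrome P450 panel screen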
[8] = target: T3, G-protein coupled receptor 35 (Homo sapiens, UniProt Q9HC97); assay: SAR analysis of Agonists of the GPR35 Receptor using an Image-Based Assay - Set 4. [Related pubchem assays (depositor defined):AID2013, AID2026]; assay type: functional
[9] = target: T4, Cannabinoid receptor 1 (Homo sapiens, UniProt P21554); assay: SAR analysis of agonists of the Cannabinoid Receptor 1 using an Image-Based Assay - Set 4. [Related pubchem assays (depositor defined):AID2013, AID2026]; assay type: functional
[10] = target: T3, G-protein coupled receptor 35; assay: SAR analysis of Antagonists of the GPR35 Receptor using an Image-Based Assay - Set 6. [Related pubchem assays (depositor defined):AID2013, AID2026]; assay type: functional
[11] = target: T4, Cannabinoid receptor 1; assay: SAR analysis of antagonists of the Cannabinoid Receptor 1 using an Image-Based Assay - Set 4. [Related pubchem assays (depositor defined):AID2013, AID2026]; assay type: functional
[12] = target: G-protein coupled receptor 55 (Homo sapiens, UniProt Q9Y2T6); assay: SAR Analysis of Selective Antagonists of GPR55 using an Image-Based Assay - Set 4. [Related pubchem assays (depositor defined):AID2013, AID2026]; assay type: functional;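 further: antagonism of response to 5 µM lysophosphatidylinositol agonist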
[13] = target: T5, Cannabinoid receptor 2 (Homo sapiens, UniProt P34972); assay: SAR analysis of antagonists of the Cannabinoid Receptor 2 using an Image-Based Assay - Set 3. [Related pubchem assays (depositor defined):AID2013, AID2026]; assay type: functional
[14] = target: T5, Cannabinoid receptor 2; assay: SAR analysis of agonists of the Cannabinoid Receptor 2 using an Image-Based Assay - Set 3. [Related pubchem assays (depositor defined):AID2013, AID2026]; assay type: functional
[15] = target: T6, High affinity choline transporter 1 (Homo sapiens, UniProt Q9GZV3); assay: CHT inhibitors, dose response, cell-based, 5-point CRC, membrane potential dye (AID 504840); assay type: functional
T6 sequence (Q9GZV3 whole entry): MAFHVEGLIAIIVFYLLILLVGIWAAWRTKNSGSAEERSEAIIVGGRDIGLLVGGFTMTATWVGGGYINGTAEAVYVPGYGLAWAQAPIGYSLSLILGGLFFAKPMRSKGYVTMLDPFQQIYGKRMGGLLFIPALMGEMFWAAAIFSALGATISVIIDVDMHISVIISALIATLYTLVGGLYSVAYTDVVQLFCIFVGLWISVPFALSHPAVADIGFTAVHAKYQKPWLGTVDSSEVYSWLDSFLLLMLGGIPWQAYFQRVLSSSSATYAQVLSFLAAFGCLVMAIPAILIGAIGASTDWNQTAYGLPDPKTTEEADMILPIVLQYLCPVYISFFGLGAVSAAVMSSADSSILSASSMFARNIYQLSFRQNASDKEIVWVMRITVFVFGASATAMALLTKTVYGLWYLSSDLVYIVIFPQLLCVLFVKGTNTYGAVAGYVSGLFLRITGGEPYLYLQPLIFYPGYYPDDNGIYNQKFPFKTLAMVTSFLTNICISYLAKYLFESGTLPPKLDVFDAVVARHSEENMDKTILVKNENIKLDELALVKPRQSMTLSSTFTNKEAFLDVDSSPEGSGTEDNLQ

[16] = target: COUP transcription factor 2 (Homo sapiens, UniProt P24468); assay: Luminescence-based cell-based high throughput dose response assay to identify inhibitors of COUP-TFII (NR2F2).; assay type: functional;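 further: HEK293 cells transiently cotransfected with COUP-TFII expression vector and reporter; luciferase reporter luminescence driven by COUP-TFII from the pX2-168 reporter plasmid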
[17] = target: T7, Kappa-type opioid receptor (Homo sapiens, UniProt P41145); assay: KOR agonist analogs, arrestin-GFP redistribution, SAR follow-up, imaging, image-based, set 3 (AID 488833); assay type: functional
[18] = target: Mu-type opioid receptor (Homo sapiens, UniProt P35372); assay: SAR Analysis of Agonists of the MOR Receptor using an Image-Based Assay - Set 3. [Related pubchem assays (depositor defined):AID1777, AID1785, AID1786, AID1966, AID2133, AID2136, AID2284, AID2285, AID2352]; assay type: functional
[19] = target: Delta-type opioid receptor (Homo sapiens, UniProt P41143); assay: SAR Analysis of Agonists of the DOR Receptor using an Image-Based Assay - Set 3. [Related pubchem assays (depositor defined):AID1777, AID1786]; assay type: functional
[20] = target: T7, Kappa-type opioid receptor; assay: SAR analysis of small molecule agonists of the kappa opioid receptor via a luminescent beta-arrestin assay - Set 3. [Related pubchem assays (depositor defined):AID1777, AID1785, AID1786, AID1966, AID2133, AID2136, AID2284, AID2500]; assay type: functional
[21] = target: Induced myeloid leukemia cell differentiation protein Mcl-1 (Homo sapiens, UniProt Q07820); assay: MCL1-BIM BH3 interaction inhibitors, dose response, biochemical, fluorescence polarization, BIM-BH3 peptide, 1536-well (AID 2217)
[22] = target: Bcl-2-like protein 1 (Homo sapiens, UniProt Q07817); assay: BCL-XL inhibitors, dose response, selectivity assay for MCL1 inhibitor project, biochemical, fluorescence polarization, 1536-well (AID 2218)
[23] = target: Intestinal-type alkaline phosphatase (Homo sapiens, UniProt P09923); assay: activation of human intestinal alkaline phosphatase – biochemical, dose response (AID 488873); assay type: functional
[24] = target: Intestinal-type alkaline phosphatase (Mus musculus, UniProt P24822); assay: mouse intestinal alkaline phosphatase activators, dose response, biochemical, luminescence, uHTS hits (AID 488783); assay type: functional
[25] = target: T8, Alkaline phosphatase, tissue-nonspecific isozyme (Homo sapiens, UniProt P05186); assay: TNAP enzyme activators, dose response, selectivity assay for mouse IAP activator project, biochemical, TNAP isozyme, mouse IAP uHTS hits (AID 488880); assay type: functional
T8 sequence (P05186 whole entry): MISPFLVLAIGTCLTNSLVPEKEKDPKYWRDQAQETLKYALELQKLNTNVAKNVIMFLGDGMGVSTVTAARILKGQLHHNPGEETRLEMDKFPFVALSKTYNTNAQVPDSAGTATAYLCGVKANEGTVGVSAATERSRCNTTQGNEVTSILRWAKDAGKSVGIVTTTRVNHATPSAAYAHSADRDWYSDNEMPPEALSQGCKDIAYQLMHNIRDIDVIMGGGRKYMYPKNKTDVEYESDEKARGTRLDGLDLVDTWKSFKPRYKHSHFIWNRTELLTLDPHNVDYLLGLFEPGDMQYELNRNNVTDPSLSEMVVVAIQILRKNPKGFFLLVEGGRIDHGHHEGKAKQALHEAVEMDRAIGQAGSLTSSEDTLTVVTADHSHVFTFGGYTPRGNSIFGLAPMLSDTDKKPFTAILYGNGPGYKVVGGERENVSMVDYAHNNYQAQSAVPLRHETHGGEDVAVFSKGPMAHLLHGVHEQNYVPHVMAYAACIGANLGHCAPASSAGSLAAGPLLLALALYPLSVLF

[26] = target: Genome polyprotein (dengue virus type 2, UniProt P29990); assay: Dengue-2 NS5 methyltransferase inhibitors, primary screen, biochemical, confirmation dose response (AID 588689); assay type: functional
[27] = target: Albumin (Bos taurus, UniProt P02769); assay: Counterscreen for inhibitors of T-cell receptor (TCR)-CD3 interaction: Fluorescence-based biochemical high throughput dose response assay to identify inhibitors of T-cell receptor (TCR)-CD3 interaction using a TAMRA-labeled BSA probe.; assay type: functional

T4 sequence (P21554 whole entry): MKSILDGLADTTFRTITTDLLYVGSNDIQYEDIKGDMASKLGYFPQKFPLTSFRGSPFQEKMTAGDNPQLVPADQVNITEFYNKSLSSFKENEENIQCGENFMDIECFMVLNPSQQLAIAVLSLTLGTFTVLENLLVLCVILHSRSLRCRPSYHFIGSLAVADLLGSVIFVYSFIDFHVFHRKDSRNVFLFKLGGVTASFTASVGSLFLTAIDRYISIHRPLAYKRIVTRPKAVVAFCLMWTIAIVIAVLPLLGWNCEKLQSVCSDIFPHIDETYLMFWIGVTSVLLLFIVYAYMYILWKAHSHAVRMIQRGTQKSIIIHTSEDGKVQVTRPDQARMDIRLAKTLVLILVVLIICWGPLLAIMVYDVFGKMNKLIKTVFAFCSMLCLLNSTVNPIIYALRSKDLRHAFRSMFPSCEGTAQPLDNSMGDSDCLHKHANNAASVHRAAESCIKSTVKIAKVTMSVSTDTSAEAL
T5 sequence (P34972 whole entry): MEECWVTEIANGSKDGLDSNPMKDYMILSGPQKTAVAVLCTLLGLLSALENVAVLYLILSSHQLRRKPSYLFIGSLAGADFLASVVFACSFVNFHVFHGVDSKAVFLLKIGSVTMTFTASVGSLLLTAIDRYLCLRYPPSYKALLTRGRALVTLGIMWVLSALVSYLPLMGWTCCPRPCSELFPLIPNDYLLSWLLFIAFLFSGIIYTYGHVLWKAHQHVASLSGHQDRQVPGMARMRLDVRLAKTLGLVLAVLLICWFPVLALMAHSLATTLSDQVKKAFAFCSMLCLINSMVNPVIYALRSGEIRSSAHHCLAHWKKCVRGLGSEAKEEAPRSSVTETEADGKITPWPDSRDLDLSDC
T7 sequence (P41145 whole entry): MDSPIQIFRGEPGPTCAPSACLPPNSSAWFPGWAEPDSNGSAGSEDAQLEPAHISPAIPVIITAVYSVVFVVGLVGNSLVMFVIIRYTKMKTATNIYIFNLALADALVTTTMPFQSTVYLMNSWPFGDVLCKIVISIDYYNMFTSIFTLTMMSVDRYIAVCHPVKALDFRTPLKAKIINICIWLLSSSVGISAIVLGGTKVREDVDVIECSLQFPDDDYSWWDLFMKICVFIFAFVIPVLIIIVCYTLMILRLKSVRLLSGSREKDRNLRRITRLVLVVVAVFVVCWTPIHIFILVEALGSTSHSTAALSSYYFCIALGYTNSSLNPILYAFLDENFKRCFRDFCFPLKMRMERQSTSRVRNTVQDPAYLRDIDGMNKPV
T3 sequence (Q9HC97 whole entry): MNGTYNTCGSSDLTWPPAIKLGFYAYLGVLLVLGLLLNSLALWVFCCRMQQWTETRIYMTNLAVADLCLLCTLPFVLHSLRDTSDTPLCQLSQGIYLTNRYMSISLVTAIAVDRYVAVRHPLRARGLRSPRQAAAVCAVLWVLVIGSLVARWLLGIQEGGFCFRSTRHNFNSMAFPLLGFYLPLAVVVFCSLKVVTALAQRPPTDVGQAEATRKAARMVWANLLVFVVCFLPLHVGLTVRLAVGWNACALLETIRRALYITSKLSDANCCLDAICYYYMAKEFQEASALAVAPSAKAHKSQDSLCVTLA
Sequence of Cytochrome P450 2C19 (P33261 whole entry): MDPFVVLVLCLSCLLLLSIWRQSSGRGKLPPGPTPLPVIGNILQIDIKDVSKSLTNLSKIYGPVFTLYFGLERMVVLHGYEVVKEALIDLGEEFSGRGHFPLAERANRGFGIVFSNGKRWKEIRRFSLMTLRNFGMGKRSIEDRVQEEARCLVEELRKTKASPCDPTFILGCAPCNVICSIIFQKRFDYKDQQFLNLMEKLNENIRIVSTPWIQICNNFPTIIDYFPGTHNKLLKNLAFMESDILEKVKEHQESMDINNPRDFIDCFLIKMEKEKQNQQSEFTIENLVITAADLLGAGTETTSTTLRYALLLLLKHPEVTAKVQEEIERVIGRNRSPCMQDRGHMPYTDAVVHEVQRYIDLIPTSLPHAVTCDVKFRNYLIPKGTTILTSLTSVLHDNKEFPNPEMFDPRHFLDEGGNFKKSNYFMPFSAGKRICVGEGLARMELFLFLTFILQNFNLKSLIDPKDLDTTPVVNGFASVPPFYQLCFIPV
Sequence of G-protein coupled receptor 55 (Q9Y2T6 whole entry): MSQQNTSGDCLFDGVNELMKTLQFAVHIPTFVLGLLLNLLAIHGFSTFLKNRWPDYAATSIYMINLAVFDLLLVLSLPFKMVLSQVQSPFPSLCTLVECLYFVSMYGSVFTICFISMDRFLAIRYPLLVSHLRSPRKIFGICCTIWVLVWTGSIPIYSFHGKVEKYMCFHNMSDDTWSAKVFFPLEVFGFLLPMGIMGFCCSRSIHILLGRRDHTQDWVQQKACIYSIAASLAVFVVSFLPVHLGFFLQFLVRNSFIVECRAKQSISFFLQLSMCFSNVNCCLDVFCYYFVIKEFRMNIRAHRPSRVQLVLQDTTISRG
Sequence of Induced myeloid leukemia cell differentiation protein Mcl-1 (Q07820 whole entry): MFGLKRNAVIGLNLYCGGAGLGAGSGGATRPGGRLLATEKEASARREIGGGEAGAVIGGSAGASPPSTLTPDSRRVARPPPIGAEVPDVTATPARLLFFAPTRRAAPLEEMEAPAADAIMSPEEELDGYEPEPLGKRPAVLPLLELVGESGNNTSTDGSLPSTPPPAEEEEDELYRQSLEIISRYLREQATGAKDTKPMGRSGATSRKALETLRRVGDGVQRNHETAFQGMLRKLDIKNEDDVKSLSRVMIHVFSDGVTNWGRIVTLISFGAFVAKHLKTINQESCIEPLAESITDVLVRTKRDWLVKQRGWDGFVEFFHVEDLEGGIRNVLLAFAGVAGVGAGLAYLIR
Sequence of Genome polyprotein (P29990 2492-3391 limits assumed): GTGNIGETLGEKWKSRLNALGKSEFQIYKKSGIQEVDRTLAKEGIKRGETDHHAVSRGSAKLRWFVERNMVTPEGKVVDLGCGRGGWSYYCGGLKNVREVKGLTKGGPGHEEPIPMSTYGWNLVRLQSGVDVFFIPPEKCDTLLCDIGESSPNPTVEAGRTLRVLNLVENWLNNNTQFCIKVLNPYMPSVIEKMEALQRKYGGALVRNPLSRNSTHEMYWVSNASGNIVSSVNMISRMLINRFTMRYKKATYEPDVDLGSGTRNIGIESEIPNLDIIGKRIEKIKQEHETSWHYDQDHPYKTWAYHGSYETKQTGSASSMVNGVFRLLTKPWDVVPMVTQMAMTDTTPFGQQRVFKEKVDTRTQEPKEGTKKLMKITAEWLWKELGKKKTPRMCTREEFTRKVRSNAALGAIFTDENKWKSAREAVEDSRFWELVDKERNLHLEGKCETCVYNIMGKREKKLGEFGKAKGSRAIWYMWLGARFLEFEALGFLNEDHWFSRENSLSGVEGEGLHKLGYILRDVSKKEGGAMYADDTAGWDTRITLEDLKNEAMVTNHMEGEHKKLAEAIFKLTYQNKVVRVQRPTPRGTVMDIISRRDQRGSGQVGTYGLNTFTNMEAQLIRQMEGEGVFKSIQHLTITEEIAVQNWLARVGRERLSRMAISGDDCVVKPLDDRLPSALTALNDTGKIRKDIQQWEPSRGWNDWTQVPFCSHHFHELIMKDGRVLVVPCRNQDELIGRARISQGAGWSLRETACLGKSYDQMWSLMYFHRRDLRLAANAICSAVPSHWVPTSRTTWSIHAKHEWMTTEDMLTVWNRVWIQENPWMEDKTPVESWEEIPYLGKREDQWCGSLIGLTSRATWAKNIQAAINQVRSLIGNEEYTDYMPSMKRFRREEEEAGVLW
Sequence of Cytochrome P450 3A4 (P08684 whole entry): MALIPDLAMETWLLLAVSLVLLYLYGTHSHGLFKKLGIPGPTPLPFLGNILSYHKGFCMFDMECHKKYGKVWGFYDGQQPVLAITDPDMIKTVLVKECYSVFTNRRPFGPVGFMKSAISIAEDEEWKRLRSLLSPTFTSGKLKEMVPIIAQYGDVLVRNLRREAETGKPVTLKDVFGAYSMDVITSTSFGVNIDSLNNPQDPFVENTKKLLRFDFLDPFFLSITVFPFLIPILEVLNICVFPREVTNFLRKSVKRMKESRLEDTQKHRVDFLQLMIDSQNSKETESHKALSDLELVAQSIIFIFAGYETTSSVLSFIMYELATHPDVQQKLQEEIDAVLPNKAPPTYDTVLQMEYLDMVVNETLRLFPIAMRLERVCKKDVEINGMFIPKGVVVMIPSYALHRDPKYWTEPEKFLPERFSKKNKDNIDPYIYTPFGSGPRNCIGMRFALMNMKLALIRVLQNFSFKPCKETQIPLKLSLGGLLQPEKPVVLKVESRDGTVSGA
Sequence of Intestinal-type alkaline phosphatase (Mus musculus, UniProt P24822) (P24822 whole entry): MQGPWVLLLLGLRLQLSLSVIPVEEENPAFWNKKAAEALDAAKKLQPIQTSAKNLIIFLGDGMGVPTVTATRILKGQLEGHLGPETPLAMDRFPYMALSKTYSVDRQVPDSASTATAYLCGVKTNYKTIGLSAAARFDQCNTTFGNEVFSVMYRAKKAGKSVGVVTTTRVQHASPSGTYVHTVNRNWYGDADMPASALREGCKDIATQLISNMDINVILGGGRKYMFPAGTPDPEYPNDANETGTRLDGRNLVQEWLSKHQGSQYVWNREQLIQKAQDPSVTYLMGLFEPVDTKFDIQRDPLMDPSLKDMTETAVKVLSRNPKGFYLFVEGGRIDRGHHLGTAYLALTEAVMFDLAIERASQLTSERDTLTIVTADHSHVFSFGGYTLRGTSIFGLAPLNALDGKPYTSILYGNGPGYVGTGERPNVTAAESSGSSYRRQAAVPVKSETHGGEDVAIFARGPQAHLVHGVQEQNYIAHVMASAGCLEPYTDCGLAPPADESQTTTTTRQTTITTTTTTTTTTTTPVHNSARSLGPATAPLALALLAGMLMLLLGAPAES
Sequence of Phosphomannomutase 2 (O15305 whole entry): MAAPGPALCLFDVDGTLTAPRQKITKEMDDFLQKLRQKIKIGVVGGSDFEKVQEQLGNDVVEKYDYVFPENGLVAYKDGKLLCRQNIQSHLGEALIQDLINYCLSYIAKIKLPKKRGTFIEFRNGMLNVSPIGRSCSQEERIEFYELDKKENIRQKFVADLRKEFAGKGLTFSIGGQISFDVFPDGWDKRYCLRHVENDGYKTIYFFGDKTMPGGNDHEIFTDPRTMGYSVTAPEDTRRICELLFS

O=C(CN1CCOCC1)N/N=C/c1ccc([N+](=O)[O-])o1
EC50 [1]: 0.127 µM (active)

COCC/N=c1\ssnc1Cl
IC50 [2]: 11.9 µM (active)
IC50 [3]: > 100 µM (inactive)

CC(C)[C@@H]1C(=O)N(S(C)(=O)=O)[C@H]2CCN(C(=O)/C=C\CN3CCCCC3)[C@@H]12
AC50 [4]: 20 µM (inconclusive)
AC50 [5]: inconclusive

Cc1ccc(C)c(N2CCN(C(=O)C3CCN(S(=O)(=O)c4cccc5nsnc45)CC3)CC2)c1
AC50 [4]: 4.47 µM (inconclusive)
AC50 [6]: 7.08 µM (inconclusive)
AC50 [7]: inconclusive

Oc1ccc(-c2n[nH]c(C(F)(F)F)c2-c2ccccc2)c(O)c1
EC50 [8]: > 32 µM (inactive)
EC50 [9]: > 32 µM (inactive)
IC50 [10]: > 32 µM (inactive)
IC50 [11]: 3.49 µM (active)
IC50 [12]: 2.95 µM (active)
IC50 [13]: > 32 µM (inactive)
EC50 [14]: 27.4 µM (inactive)
IC50 [15]: 11 µM (active)
IC50 [16]: 10.9 µM (inactive)

Fc1ccc(CSc2nnc(-c3ccccn3)n2Cc2ccco2)c(F)c1F
EC50 [17]: 5.29 µM (active)
EC50 [18]: > 32 µM (inactive)
EC50 [19]: > 64 µM (inactive)
EC50 [20]: 7.01 µM (active)

O=c1cc(-c2ccc(O)cc2)oc2c(O)c(O)c(O)c(O)c12
IC50 [21]: 18.8 µM (not active)
IC50 [22]: > 109 µM (not active)
EC50 [23]: 81 µM (active)
EC50 [24]: 71.9 µM (active)
EC50 [25]: 43.4 µM (active)
IC50 [26]: > 100 µM (active)
IC50 [27]: > 94.2 µM (inactive)

From ChEMBL document CHEMBL1201862, “PubChem BioAssay data set” (2004)
